The molecules below were run against Phospholipase A2 (Naja mossambica mossambica) (assay: Phospholipase A2 inhibition using mixed micelles pH-stat assay and 14 kDa-Phospholipase A2 from Naja mossambica mossambica).
`CCCCCCCCCCCCCCCC(=O)OCCCCCCC[C@H](COP(=O)(O)OC)NC(C)=O` [Hexadecanoic acid (R)-8-acetylamino-9-(hydroxy-methoxy-phosphoryloxy)-nonyl ester] gave an IC50 of 5 µM.
Molecule `CCCCCCCC(=O)OCCCCCCC[C@H](COP(=O)(O)OC)NC(C)=O` [Octanoic acid (R)-8-acetylamino-9-(hydroxy-methoxy-phosphoryloxy)-nonyl ester] has an IC50 of 3.1 µM.
With `CCCCCCCCCCCCCCCCOCCOCCCCCCC[C@H](COP(=O)(O)OC)NC(C)=O` [Phosphoric acid (R)-2-acetylamino-9-(2-hexadecyloxy-ethoxy)-nonyl ester methyl ester] the IC50 was 1.7 µM.
With `COP(=O)(O)OC[C@@H](CCCCCCCO)NC(C)=O` [Phosphoric acid (R)-2-acetylamino-9-hydroxy-nonyl ester methyl ester] the IC50 was 350 µM.
Molecule `CCCCCCCCCCCCCCCC[C@H](COP(=O)(O)OC)NC(C)=O` [Phosphoric acid (R)-2-acetylamino-octadecyl ester methyl ester] has an IC50 of 3.4 µM.
`COP(=O)(O)OC[C@@H](CCCCCCCOC(=O)CCC(=O)OC1CCC2(C)C(=CCC3C2CCC2(C)C(C(C)CCCC(C)C)CCC32)C1)NC(C)=O` (stereo partly drawn) [Succinic acid (R)-8-acetylamino-9-(hydroxy-methoxy-phosphoryloxy)-nonyl ester 17-(1,5-dimethyl-hexyl)-10,13-dimethyl-2,3,4,7,8,9,10,11,12,13,14,15,16,17-tetradecahydro-1H-cyclopenta[a]phenanthren-3-yl ester] showed an IC50 of 2.3 µM.
